Where two headings read alike, the source gives them in different places. Each block holds one molecule with its values, some of them ahead of it.
What was measured:
Format in all cases: binding
Q9P2G1 = biological target: T1, Q9P2G1 (Homo sapiens, UniProt Q9P2G1); experiment: Competitive cysteine profiling, probe competition (Table 2B)
T1 construct: Cells were resuspended in cold PBS on ice and sonicated with a probe sonicator to achieve lysis; endogenous in cells
T1 sequence (Q9P2G1 1-1089): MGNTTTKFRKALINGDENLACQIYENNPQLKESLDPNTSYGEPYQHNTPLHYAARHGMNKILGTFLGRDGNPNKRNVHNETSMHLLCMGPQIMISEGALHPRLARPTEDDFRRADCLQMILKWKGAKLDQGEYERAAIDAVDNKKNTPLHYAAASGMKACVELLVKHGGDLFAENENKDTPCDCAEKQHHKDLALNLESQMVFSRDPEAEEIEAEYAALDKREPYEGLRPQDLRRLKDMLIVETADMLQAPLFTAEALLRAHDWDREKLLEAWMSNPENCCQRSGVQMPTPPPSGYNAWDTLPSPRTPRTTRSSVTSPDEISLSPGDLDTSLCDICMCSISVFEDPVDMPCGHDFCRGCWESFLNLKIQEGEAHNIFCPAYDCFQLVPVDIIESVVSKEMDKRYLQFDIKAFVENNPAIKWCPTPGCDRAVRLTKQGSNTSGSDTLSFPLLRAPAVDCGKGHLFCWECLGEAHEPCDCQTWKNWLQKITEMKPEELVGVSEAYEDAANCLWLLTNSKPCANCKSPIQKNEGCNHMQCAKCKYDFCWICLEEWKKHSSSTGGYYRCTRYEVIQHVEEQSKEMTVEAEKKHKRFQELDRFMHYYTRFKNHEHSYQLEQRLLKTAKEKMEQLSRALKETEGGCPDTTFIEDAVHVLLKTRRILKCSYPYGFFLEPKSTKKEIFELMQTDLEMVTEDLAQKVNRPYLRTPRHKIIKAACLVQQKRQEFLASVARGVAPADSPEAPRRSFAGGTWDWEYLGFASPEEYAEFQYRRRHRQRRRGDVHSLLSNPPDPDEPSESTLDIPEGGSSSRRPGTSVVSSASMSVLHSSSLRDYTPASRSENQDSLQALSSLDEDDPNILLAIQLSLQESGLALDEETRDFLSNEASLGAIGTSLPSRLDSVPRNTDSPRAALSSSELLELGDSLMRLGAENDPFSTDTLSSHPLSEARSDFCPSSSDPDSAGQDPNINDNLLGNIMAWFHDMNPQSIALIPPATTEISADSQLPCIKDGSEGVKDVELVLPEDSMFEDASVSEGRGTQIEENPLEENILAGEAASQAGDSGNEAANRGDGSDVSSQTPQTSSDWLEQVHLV
Text: (§1) The following 96-well sample prep protocol was used for sample preparation.

Q9H1A4 = biological target: T2, Q9H1A4 (Homo sapiens, UniProt Q9H1A4); experiment: as above
T2 construct: Cells were resuspended in cold PBS on ice and sonicated with a probe sonicator to achieve lysis; endogenous in cells
T2 sequence (Q9H1A4 whole entry): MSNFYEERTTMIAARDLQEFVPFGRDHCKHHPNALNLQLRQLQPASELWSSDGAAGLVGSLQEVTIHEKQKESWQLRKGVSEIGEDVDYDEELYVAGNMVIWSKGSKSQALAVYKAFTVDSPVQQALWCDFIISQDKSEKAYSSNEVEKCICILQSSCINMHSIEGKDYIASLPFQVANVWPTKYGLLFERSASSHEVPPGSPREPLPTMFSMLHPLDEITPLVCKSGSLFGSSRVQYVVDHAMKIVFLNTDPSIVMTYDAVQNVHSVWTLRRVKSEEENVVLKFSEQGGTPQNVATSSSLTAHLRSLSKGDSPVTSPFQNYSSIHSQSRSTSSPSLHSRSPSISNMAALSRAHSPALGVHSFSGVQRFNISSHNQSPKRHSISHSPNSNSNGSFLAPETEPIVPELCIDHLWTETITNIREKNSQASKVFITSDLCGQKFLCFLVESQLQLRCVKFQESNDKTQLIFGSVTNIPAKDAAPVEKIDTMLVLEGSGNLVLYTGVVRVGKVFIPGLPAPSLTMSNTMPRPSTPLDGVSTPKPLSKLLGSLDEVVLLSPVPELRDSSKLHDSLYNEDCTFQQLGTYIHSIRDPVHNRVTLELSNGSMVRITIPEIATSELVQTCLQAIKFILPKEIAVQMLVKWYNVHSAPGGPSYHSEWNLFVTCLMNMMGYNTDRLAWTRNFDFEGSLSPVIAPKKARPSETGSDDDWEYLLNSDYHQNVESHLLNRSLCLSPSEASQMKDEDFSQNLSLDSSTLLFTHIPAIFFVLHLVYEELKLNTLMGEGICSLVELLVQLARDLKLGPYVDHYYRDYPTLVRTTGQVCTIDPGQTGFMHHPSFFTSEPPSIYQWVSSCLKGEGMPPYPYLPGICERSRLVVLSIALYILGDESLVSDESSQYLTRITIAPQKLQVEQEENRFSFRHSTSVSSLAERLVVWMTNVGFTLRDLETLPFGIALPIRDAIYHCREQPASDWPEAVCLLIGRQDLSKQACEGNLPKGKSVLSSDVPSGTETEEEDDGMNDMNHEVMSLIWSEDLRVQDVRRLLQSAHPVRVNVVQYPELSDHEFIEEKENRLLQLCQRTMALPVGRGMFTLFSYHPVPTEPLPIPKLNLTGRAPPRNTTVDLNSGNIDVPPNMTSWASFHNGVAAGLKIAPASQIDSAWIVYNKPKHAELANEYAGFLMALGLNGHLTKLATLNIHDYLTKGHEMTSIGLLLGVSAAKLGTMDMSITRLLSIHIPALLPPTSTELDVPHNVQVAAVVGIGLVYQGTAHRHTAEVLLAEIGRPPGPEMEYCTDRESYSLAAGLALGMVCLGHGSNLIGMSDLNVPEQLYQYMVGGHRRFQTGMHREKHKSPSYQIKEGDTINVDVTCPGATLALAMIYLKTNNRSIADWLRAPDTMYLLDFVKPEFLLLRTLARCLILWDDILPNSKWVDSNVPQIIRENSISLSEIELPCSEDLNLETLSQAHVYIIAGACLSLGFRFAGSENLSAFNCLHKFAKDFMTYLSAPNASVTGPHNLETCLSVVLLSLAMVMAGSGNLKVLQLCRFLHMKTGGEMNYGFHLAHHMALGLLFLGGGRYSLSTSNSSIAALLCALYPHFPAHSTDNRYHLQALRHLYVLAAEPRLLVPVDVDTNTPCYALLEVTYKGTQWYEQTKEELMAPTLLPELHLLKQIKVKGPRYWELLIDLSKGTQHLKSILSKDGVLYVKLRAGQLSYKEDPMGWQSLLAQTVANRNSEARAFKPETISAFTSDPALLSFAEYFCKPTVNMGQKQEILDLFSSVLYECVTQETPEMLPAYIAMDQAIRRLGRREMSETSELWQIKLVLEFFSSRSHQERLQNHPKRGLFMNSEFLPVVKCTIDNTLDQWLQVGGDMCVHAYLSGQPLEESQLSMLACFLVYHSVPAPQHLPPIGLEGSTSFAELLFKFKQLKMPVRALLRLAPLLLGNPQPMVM
Text: as §1

Q9UJX4 = biological target: T3, Q9UJX4 (Homo sapiens, UniProt Q9UJX4); experiment: as above
T3 construct: Cells were resuspended in cold PBS on ice and sonicated with a probe sonicator to achieve lysis; endogenous in cells
T3 sequence (Q9UJX4 whole entry): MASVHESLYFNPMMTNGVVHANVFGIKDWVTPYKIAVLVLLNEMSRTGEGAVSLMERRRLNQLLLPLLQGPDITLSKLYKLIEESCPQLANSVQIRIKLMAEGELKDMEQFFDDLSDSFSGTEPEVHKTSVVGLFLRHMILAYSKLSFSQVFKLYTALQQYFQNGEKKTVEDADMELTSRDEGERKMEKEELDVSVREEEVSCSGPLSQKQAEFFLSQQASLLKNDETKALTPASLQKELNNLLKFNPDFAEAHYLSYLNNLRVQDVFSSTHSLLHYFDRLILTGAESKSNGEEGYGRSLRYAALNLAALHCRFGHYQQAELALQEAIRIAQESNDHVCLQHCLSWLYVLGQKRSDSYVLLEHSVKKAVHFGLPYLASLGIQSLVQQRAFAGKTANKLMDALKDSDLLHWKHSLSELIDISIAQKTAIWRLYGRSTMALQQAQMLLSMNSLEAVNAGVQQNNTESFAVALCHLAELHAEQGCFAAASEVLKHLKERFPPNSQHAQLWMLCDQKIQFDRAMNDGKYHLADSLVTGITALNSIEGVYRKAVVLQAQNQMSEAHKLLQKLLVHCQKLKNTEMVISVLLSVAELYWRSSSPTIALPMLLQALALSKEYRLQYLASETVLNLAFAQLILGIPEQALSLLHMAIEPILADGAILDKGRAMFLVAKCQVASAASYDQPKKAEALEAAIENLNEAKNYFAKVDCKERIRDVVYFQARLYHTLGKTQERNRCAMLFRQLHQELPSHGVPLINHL
Text: as §1

Q9Y297 = biological target: T4, Q9Y297 (Homo sapiens, UniProt Q9Y297); experiment: as above
T4 construct: 200 μL of lysate containing 5 mg/ml proteome was treated with 2 μL of 100× compound stock; endogenous in cells
T4 sequence (Q9Y297 whole entry): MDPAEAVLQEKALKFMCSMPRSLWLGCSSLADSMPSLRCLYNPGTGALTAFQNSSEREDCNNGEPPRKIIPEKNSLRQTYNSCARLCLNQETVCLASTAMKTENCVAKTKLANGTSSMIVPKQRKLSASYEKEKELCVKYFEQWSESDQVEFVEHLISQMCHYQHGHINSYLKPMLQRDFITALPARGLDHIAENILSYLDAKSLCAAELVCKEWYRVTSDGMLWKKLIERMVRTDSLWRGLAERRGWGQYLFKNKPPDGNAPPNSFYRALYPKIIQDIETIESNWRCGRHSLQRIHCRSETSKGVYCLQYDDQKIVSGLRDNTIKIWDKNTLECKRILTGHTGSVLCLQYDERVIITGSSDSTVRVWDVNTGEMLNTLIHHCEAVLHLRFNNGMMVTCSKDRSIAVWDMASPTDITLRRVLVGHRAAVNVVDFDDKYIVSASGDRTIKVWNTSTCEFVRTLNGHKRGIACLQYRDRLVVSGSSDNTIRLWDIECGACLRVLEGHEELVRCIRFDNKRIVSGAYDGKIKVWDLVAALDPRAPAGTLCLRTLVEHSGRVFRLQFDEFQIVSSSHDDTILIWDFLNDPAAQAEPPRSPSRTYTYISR
Text: as §1

Q9BSF8 = biological target: T5, Q9BSF8 (Homo sapiens, UniProt Q9BSF8); experiment: as above
T5 construct: 200 μL of lysate containing 5 mg/ml proteome was treated with 2 μL of 100× compound stock; endogenous in cells
T5 sequence (Q9BSF8 whole entry): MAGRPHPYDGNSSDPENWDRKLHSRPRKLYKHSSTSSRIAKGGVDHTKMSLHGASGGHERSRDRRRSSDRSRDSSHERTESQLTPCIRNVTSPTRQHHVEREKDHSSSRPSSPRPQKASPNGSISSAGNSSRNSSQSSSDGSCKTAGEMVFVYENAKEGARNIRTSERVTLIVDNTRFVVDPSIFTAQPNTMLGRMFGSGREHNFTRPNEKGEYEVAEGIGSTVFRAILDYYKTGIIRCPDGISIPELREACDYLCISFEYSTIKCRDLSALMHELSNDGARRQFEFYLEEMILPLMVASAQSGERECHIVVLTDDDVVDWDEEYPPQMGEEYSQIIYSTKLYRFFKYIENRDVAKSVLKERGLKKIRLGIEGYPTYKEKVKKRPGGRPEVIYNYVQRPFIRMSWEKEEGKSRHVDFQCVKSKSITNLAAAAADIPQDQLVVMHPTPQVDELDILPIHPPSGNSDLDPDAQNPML
Text: as §1

Q7Z569 = biological target: T6, Q7Z569 (Homo sapiens, UniProt Q7Z569); experiment: as above
T6 construct: 200 μL of lysate containing 5 mg/ml proteome was treated with 2 μL of 100× compound stock; endogenous in cells
T6 sequence (Q7Z569 whole entry): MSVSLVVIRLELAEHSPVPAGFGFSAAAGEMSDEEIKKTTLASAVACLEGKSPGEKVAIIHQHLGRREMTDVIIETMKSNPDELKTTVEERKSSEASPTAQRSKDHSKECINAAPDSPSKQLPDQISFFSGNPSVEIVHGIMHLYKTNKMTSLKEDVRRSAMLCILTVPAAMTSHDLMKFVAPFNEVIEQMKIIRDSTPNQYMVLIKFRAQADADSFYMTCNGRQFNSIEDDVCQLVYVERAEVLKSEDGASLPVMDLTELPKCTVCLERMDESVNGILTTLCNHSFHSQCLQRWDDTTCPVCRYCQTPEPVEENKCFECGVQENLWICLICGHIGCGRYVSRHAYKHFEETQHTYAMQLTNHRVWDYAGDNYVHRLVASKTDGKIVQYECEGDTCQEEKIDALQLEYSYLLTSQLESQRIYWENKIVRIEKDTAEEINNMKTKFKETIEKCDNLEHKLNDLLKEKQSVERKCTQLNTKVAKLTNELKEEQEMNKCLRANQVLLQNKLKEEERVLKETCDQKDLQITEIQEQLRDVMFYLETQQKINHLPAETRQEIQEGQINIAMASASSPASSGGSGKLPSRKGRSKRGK
Text: as §1

UniProt Q86WC4 = biological target: T7, UniProt Q86WC4 (Homo sapiens, UniProt Q86WC4); experiment: Cysteine liganding, probe competition
T7 construct: Cells were resuspended in cold PBS on ice and sonicated with a probe sonicator to achieve lysis; endogenous in cells
T7 sequence (Q86WC4 32-334): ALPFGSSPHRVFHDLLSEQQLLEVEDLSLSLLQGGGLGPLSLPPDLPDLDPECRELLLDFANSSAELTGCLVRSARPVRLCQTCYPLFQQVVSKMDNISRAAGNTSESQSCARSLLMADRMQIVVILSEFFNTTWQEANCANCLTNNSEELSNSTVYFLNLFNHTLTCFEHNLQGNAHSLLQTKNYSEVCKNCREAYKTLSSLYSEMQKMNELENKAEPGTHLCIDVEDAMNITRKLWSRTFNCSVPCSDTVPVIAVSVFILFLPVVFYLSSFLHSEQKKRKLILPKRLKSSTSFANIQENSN
Text: as §1

[1] = read-out: KB05_100 uM_percent_inhibition
[2] = 100 uM, read-out: KB05_100 uM_percent_inhibition
[3] = 500 uM, read-out: KB05_500 uM_percent_inhibition

KB05_100 uM_percent_inhibition (Q9P2G1; 100 uM): 22% | inhibition at 100 µM (Q9P2G1; [1]): 41% | inhibition at 100 µM (Q9H1A4; [1]): 29% | inhibition at 100 µM (Q9UJX4; [2]): 9% | inhibition at 500 µM (Q9UJX4; [3]): 74% | inhibition at 100 µM (Q9Y297; [1]): 43% | inhibition at 100 µM (Q9BSF8; [2]): 27% | KB05_500 uM_percent_inhibition (Q9BSF8; 500 uM): 53% | inhibition at 500 µM (Q9BSF8; [3]): 37% | inhibition at 100 µM (Q7Z569; [1]): 33% | inhibition at 500 µM (UniProt Q86WC4; read-out: KB05_500 uM_percent_inhibition): 66%
SMILES: C=CC(=O)N(c1ccccc1)c1ccc(Br)cc1 [KB05]

SMILES: O=C(CCl)Nc1cc(C(F)(F)F)cc(C(F)(F)F)c1 [KBO3]
KB03_100 uM_percent_inhibition (Q9P2G1; 100 uM): 29% | KB03_100 uM_percent_inhibition (Q9UJX4; 100 uM): 31% | KB03_100 uM_percent_inhibition (Q9Y297; 100 uM): 54% | KB03_100 uM_percent_inhibition (Q9BSF8; 100 uM): 29% | KB03_100 uM_percent_inhibition (Q7Z569; 100 uM): 10% | KB03_500 uM_percent_inhibition (UniProt Q86WC4; 500 uM): 58%

SMILES: COc1ccc2c(c1)CCCN2C(=O)CCl [KB02]
KB02_100 uM_percent_inhibition (Q9H1A4; 100 uM): 21% | inhibition at 100 µM (Q9H1A4; read-out: KB02_100 uM_percent_inhibition): 24% | inhibition at 500 µM (UniProt Q86WC4; read-out: KB02_500 uM_percent_inhibition): 68%

From patent publication US20200239530A1, “COMPOUNDS AND METHODS OF MODULATING PROTEIN DEGRADATION” (Vividion Therapeutics, Inc., priority 2017, published 2020)
